Measured values taken from US10272117B2, “Methods of using an activator of cereblon for neural cell expansion and the treatment of central nervous system disorders” (Celgene Corporation, priority 2014, dated 2019).

Legend:
zebrafish = assay: Resistance to thalidomide in brain development (brain thickness to body length); type: in vivo
Method: To analyze the functional relationship between thalidomide and BRD7, brain development of BRD7-knockdown zebrafish treated with thalidomide was examined and compared with that of normal zebrafish treated with thalidomide. […] FIGS. 12A and 12B show the normal zebrafish treated with 400 μM thalidomide. FIGS. 12C and 12D show the BRD7-knockdown zebrafish treated with 400 μM thalidomide. FIGS. 12A′ and 12C′ show the brain regions of the normal zebrafish treated with 400 μM thalidomide. FIGS. 12B′ and 12D′ show the brain regions of the BRD7-knockdown zebrafish treated with 400 μM thalidomide. […] The percentages of brain thickness to body length in the normal and the BRD7-knockdown zebrafish, with or without thalidomide treatments were also measured. […] The brain size of the BRD7-knockdown larvae incubated in thalidomide is 98.8% of that of the BRD7-knockdown larvae incubated in the absence of thalidomide.

zebrafish embryos = assay: Immunostaining of neurons, proliferating cells, glia and serotonin-positive cells in zebrafish; type: in vivo; details: for numbers of serotonin-positive cells / numbers of radial glia cells: 54-55 hpf; for numbers of radial glia cells: Zrf-2
Method: Antibody staining of early neurons of zebrafish was performed by the following technique. The embryos 24 to 28 hours after fertilization were fixed at 4° C. for 12 hours in a 4% paraformaldehyde/phosphate buffer (pH 8.0). After washing four times with phosphate buffer, where each wash was performed for 15 minutes, blocking was carried out at normal temperature for one hour in 5% newborn goat serum dissolved in 0.5% Triton X-100/phosphate buffer. Primary antibody reaction was carried out using a monoclonal anti-acetylated tubulin antibody diluted at 1:1000 in the same solution at 4° C. for 12 hours. Then, after washing the embryos similarly with phosphate buffer, secondary antibody reaction was carried out using an anti-mouse antibody conjugated with Alexa Fluoro 488 (Molecular Probes) under the same conditions as those applied in the primary antibody reaction. The embryos were then washed with phosphate buffer and transparentized in 30%/50%/70% glycerol (dissolved in phosphate buffer), and then observed with a fluorescent microscope under excitation at 488 nm.
Two-days-old zebrafish were used (for glia cell staining and serotonin-producing cell staining, zebrafish 56 hours and 49 hours after fertilization were used, respectively). Zebrafish were fixed with 4% paraformaldehyde (PFA) and then washed with phosphate buffer (PBS), followed by treatment with 10 μg/ml protease K for partial digestion of the epidermis. After the digestion reaction, the zebrafish were washed with PBST (PBS+0.5% Triton X-100) for 20 minutes and then fixed with PFA again. The fixed zebrafish were washed with PBST at room temperature for one hour, followed by blocking using PBST+5% goat serum. The resulting specimens were reacted with a monoclonal anti-glia antibody (zrf-1/zrf-2) or a rabbit anti-serotonin antibody at 4° C. overnight (12 to 18 hours). Subsequently, the specimens were washed with PBST+5% goat serum for one hour at room temperature, and secondary antibody reaction was carried out by substituting the antibody for a goat anti-mouse IgG antibody (Cy-2 conjugate for glia cell staining) or a goat anti-rabbit IgG antibody (Cy-5 conjugate for serotonin-producing cell staining) at 4° C. overnight (12 to 18 hours). Subsequently, the specimens were washed with PBST at room temperature for one hour. After washing, PBST was replaced by 30%, 50%, and 70% glycerol/PBS, and the whole zebrafish were mounted on glass slides to obtain preparations. Fluorescence was observed under excitation wavelength of Cy-2 and Cy-5, and the distribution of the glia cells or the serotonin-producing cells was recorded. Glia cells were observed from the lateral side of zebrafish, while the serotonin-producing cells were photographed from the dorsal side in order to observe the distribution of the cells along the midline.
Numbers of primary neurons and proliferating cells were analyzed by immunostaining in untreated and Ikaros-knockdown zebrafish embryos at 27 hpf. FIGS. 17A and 17D show the primary neurons in the CNS of the untreated and the Ikaros-knockdown zebrafish embryos, respectively, at 27 hpf by immunostaining with anti-acetylated tubulin antibody. FIGS. 17B and 17E show the proliferating cells in the CNS of the untreated and the Ikaros-knockdown zebrafish embryos, respectively, at 27 hpf by immunostaining with anti-phospho-histone H3 antibodies. […] Global distribution of the primary neurons was normal as shown (scale bar: 50 μm).
The number of phosphorylated histone H3-positive cells was counted in a stacked focal plane of laser confocal microscope at 27 hpf. The average number of the H3-positive cells in the telencephalon, the diencephalon, and the midbrain was statistically compared between the untreated and the Ikaros-knockdown embryos (n=3 in each experiment).
The numbers of radial glial cells and matured neurons were analyzed in untreated and CRBN-overexpressing zebrafish embryos. […]

With “5′-TGTGTTTCTTGTGCTTTTTGCCCAT-3′ (all phosphorodiamidate morpholino (PMO)) [BRD7-knockdown, 25-mer antisense morpholino oligonucleotide (AMO) used for the BRD7 gene knockdown]” the “brain size relative to normal larvae” value (zebrafish; in 400 μM of thalidomide, n=12) was 140.0%, the “brain development of BRD7-knockdown larvae” value (zebrafish; in thalidomide solution (400 μM)) was “developed almost normally” and the “brain size relative to normal larvae” value (zebrafish; normal E3 medium, without thalidomide treatment) was 120.7%.

With “5′-TTCCTGTGCCTCCTCAGTCTCCATC-3′ (all phosphorodiamidate morpholino (PMO)) [Ikaros-knockdown, 25-mer antisense morpholino oligonucleotide (AMO) used for the Ikaros gene knockdown]” the “number of the primary neurons in the CNS” value (zebrafish embryos; 27 hpf, anti-acetylated tubulin) was “increased”, the “number of the proliferating cells in the CNS” value (zebrafish embryos; 27 hpf, anti-phospho-histone H3) was “increased” and the “number of H3-positive proliferating cells in telencephalon, diencephalon and midbrain” value (zebrafish embryos; 27 hpf, n=3) was “increased”. For the same substance, the “numbers of serotonin-positive cells” value (zebrafish embryos) was “increased” and the “numbers of radial glia cells” value (zebrafish embryos) was “increased”.

With “5′-AGAGCTGTAGCTGGTTCCCCATTTC-3′ (all phosphorodiamidate morpholino (PMO)) [CRBN-knockdown, 25-mer antisense morpholino oligonucleotide (AMO) used for the CRBN gene knockdown, reference compound]” the “numbers of serotonin-positive cells” value (zebrafish embryos) was “decreased” and the “numbers of radial glia cells” value (zebrafish embryos) was “decreased”.
